# According to the NIST ThermoML archive (doi:10.1021/je900596d):
# Numbers after ± are expanded uncertainties.
# Conditions: Vibrating tube method
structure (smiles),measurement,setting,value
FC(F)=C(F)C(F)(F)F [hexafluoropropene],mass density,"358 K, 4209.5 kPa, Liquid",959.82 ± 1.1 kg/m3
same,mass density,"358 K, 4244 kPa, Liquid",962.07 ± 1.1 kg/m3
same,mass density,"358 K, 4311.4 kPa, Liquid",966.64 ± 1.1 kg/m3
same,mass density,"358 K, 4345.1 kPa, Liquid",968.66 ± 1.1 kg/m3
same,mass density,"358 K, 4377.8 kPa, Liquid",970.84 ± 1.1 kg/m3
same,mass density,"358 K, 4412.5 kPa, Liquid",972.94 ± 1.1 kg/m3
same,mass density,"358 K, 4446.5 kPa, Liquid",974.92 ± 1.1 kg/m3
same,mass density,"358 K, 4462.6 kPa, Liquid",975.95 ± 1.1 kg/m3
same,mass density,"358 K, 4478.8 kPa, Liquid",976.81 ± 1.1 kg/m3
same,mass density,"358 K, 4496.2 kPa, Liquid",977.89 ± 1.1 kg/m3
same,mass density,"358 K, 4532.3 kPa, Liquid",980.04 ± 1.1 kg/m3
same,mass density,"358 K, 4565.8 kPa, Liquid",981.81 ± 1.1 kg/m3
same,mass density,"358 K, 4599.8 kPa, Liquid",983.7 ± 1.1 kg/m3
same,mass density,"358 K, 4632.6 kPa, Liquid",985.44 ± 1.1 kg/m3
same,mass density,"358 K, 4668.1 kPa, Liquid",987.45 ± 1.1 kg/m3
same,mass density,"358 K, 4740 kPa, Liquid",991.23 ± 1.1 kg/m3
same,mass density,"358 K, 4775.8 kPa, Liquid",993.1 ± 1.1 kg/m3
same,mass density,"358 K, 4809.3 kPa, Liquid",994.65 ± 1.1 kg/m3
same,mass density,"358 K, 4843.6 kPa, Liquid",996.44 ± 1.1 kg/m3
same,mass density,"358 K, 4876.3 kPa, Liquid",997.93 ± 1.1 kg/m3
same,mass density,"358 K, 4910.7 kPa, Liquid",999.61 ± 1.1 kg/m3
same,mass density,"358 K, 4945.1 kPa, Liquid",1001.33 ± 1.1 kg/m3
same,mass density,"358 K, 4979.1 kPa, Liquid",1002.85 ± 1.1 kg/m3
same,mass density,"358 K, 5028.3 kPa, Liquid",1005.04 ± 1.1 kg/m3
same,mass density,"358 K, 5084.7 kPa, Liquid",1007.62 ± 1.1 kg/m3
same,mass density,"358 K, 5195.4 kPa, Liquid",1012.4 ± 1.1 kg/m3
same,mass density,"358 K, 5249.7 kPa, Liquid",1014.83 ± 1.1 kg/m3
same,mass density,"358 K, 5306.8 kPa, Liquid",1017.1 ± 1.1 kg/m3
same,mass density,"358 K, 5363.6 kPa, Liquid",1019.45 ± 1.1 kg/m3
same,mass density,"358 K, 5416.2 kPa, Liquid",1021.54 ± 1.1 kg/m3
same,mass density,"358 K, 5474.6 kPa, Liquid",1023.85 ± 1.1 kg/m3
same,mass density,"358 K, 5533.9 kPa, Liquid",1026.1 ± 1.1 kg/m3
same,mass density,"358 K, 5592 kPa, Liquid",1028.23 ± 1.1 kg/m3
same,mass density,"358 K, 5702.1 kPa, Liquid",1032.29 ± 1.1 kg/m3
same,mass density,"358 K, 5755.2 kPa, Liquid",1034.16 ± 1.1 kg/m3
same,mass density,"358 K, 5815.3 kPa, Liquid",1036.29 ± 1.1 kg/m3
same,mass density,"358 K, 5871.8 kPa, Liquid",1038.22 ± 1.1 kg/m3
same,mass density,"358 K, 5932.6 kPa, Liquid",1040.24 ± 1.1 kg/m3
same,mass density,"358 K, 5991.6 kPa, Liquid",1042.28 ± 1.1 kg/m3
same,mass density,"358 K, 6074.8 kPa, Liquid",1044.98 ± 1.1 kg/m3
same,mass density,"358 K, 6112.3 kPa, Liquid",1046.22 ± 1.1 kg/m3
same,mass density,"358 K, 6149.2 kPa, Liquid",1047.34 ± 1.1 kg/m3
same,mass density,"358 K, 6186.4 kPa, Liquid",1048.47 ± 1.1 kg/m3
same,mass density,"358 K, 6224.4 kPa, Liquid",1049.67 ± 1.1 kg/m3
same,mass density,"358 K, 6266.3 kPa, Liquid",1050.92 ± 1.1 kg/m3
same,mass density,"358 K, 6304.3 kPa, Liquid",1052.13 ± 1.1 kg/m3
same,mass density,"358 K, 6342.4 kPa, Liquid",1053.2 ± 1.1 kg/m3
same,mass density,"358 K, 6379.7 kPa, Liquid",1054.31 ± 1.1 kg/m3
same,mass density,"358 K, 6416.4 kPa, Liquid",1055.29 ± 1.1 kg/m3
same,mass density,"358 K, 6452.8 kPa, Liquid",1056.39 ± 1.1 kg/m3
same,mass density,"358 K, 6490 kPa, Liquid",1057.54 ± 1.1 kg/m3
same,mass density,"358 K, 6563.2 kPa, Liquid",1059.62 ± 1.1 kg/m3
same,mass density,"358 K, 6600.1 kPa, Liquid",1060.63 ± 1.1 kg/m3
same,mass density,"358 K, 6637.3 kPa, Liquid",1061.72 ± 1.1 kg/m3
same,mass density,"358 K, 6674.3 kPa, Liquid",1062.71 ± 1.1 kg/m3
same,mass density,"358 K, 6711.6 kPa, Liquid",1063.79 ± 1.1 kg/m3
same,mass density,"358 K, 6747.9 kPa, Liquid",1064.77 ± 1.1 kg/m3
same,mass density,"358 K, 6784.3 kPa, Liquid",1065.78 ± 1.1 kg/m3
same,mass density,"358 K, 6821 kPa, Liquid",1066.78 ± 1.1 kg/m3
same,mass density,"358 K, 6857.4 kPa, Liquid",1067.85 ± 1.1 kg/m3
same,mass density,"358 K, 6894.7 kPa, Liquid",1068.84 ± 1.1 kg/m3
same,mass density,"358 K, 6931.9 kPa, Liquid",1069.87 ± 1.1 kg/m3
same,mass density,"358 K, 6970.4 kPa, Liquid",1070.83 ± 1.1 kg/m3
same,mass density,"358 K, 7006.9 kPa, Liquid",1071.75 ± 1.1 kg/m3
same,mass density,"358 K, 7152.9 kPa, Liquid",1075.52 ± 1.1 kg/m3
same,mass density,"358 K, 7190.1 kPa, Liquid",1076.36 ± 1.1 kg/m3
same,mass density,"358 K, 7228 kPa, Liquid",1077.43 ± 1.1 kg/m3
same,mass density,"358 K, 7266.4 kPa, Liquid",1078.28 ± 1.1 kg/m3
same,mass density,"358 K, 7303.8 kPa, Liquid",1079.27 ± 1.1 kg/m3
same,mass density,"358 K, 7341.7 kPa, Liquid",1080.24 ± 1.1 kg/m3
same,mass density,"358 K, 7379.5 kPa, Liquid",1081.09 ± 1.1 kg/m3
same,mass density,"358 K, 7418.9 kPa, Liquid",1082.02 ± 1.1 kg/m3
same,mass density,"358 K, 7494.3 kPa, Liquid",1083.92 ± 1.1 kg/m3
same,mass density,"358 K, 7532.3 kPa, Liquid",1084.8 ± 1.1 kg/m3
same,mass density,"358 K, 7568.4 kPa, Liquid",1085.67 ± 1.1 kg/m3
same,mass density,"358 K, 7605.7 kPa, Liquid",1086.46 ± 1.1 kg/m3
same,mass density,"358 K, 7643.1 kPa, Liquid",1087.34 ± 1.1 kg/m3
same,mass density,"358 K, 7680.1 kPa, Liquid",1088.21 ± 1.1 kg/m3
same,mass density,"358 K, 7718 kPa, Liquid",1089.17 ± 1.1 kg/m3
same,mass density,"358 K, 7755.4 kPa, Liquid",1089.97 ± 1.1 kg/m3
same,mass density,"358 K, 7792.1 kPa, Liquid",1090.77 ± 1.1 kg/m3
same,mass density,"358 K, 7828.3 kPa, Liquid",1091.56 ± 1.1 kg/m3
same,mass density,"358 K, 7903.4 kPa, Liquid",1093.29 ± 1.1 kg/m3
same,mass density,"358 K, 7941.2 kPa, Liquid",1094.08 ± 1.1 kg/m3
same,mass density,"358 K, 7980.6 kPa, Liquid",1094.93 ± 1.1 kg/m3
same,mass density,"358 K, 8017.9 kPa, Liquid",1095.72 ± 1.1 kg/m3
same,mass density,"358 K, 8056.1 kPa, Liquid",1096.58 ± 1.1 kg/m3
same,mass density,"358 K, 8093.2 kPa, Liquid",1097.39 ± 1.1 kg/m3
same,mass density,"358 K, 8130.7 kPa, Liquid",1098.19 ± 1.1 kg/m3
same,mass density,"358 K, 8167.5 kPa, Liquid",1098.98 ± 1.1 kg/m3
same,mass density,"358 K, 8204.2 kPa, Liquid",1099.77 ± 1.1 kg/m3
same,mass density,"358 K, 8277.6 kPa, Liquid",1101.37 ± 1.1 kg/m3
same,mass density,"358 K, 8354.7 kPa, Liquid",1102.88 ± 1.1 kg/m3
same,mass density,"358 K, 8391 kPa, Liquid",1103.6 ± 1.1 kg/m3
same,mass density,"358 K, 8427.7 kPa, Liquid",1104.39 ± 1.1 kg/m3
same,mass density,"358 K, 8465.5 kPa, Liquid",1105.17 ± 1.1 kg/m3
same,mass density,"358 K, 8503.3 kPa, Liquid",1105.96 ± 1.1 kg/m3
same,mass density,"358 K, 8541.1 kPa, Liquid",1106.74 ± 1.1 kg/m3
same,mass density,"358 K, 8614.7 kPa, Liquid",1108.07 ± 1.1 kg/m3
same,mass density,"358 K, 8651.4 kPa, Liquid",1108.96 ± 1.1 kg/m3
same,mass density,"358 K, 8689.1 kPa, Liquid",1109.62 ± 1.1 kg/m3
same,mass density,"358 K, 8725.5 kPa, Liquid",1110.44 ± 1.1 kg/m3
same,mass density,"358 K, 8762.8 kPa, Liquid",1111.12 ± 1.1 kg/m3
same,mass density,"358 K, 8836.9 kPa, Liquid",1112.57 ± 1.1 kg/m3
same,mass density,"358 K, 8873.4 kPa, Liquid",1113.15 ± 1.1 kg/m3
same,mass density,"358 K, 8910.1 kPa, Liquid",1113.92 ± 1.1 kg/m3
same,mass density,"358 K, 8946.4 kPa, Liquid",1114.65 ± 1.1 kg/m3
same,mass density,"358 K, 8982.6 kPa, Liquid",1115.32 ± 1.1 kg/m3
same,mass density,"358 K, 9019.5 kPa, Liquid",1115.96 ± 1.1 kg/m3
same,mass density,"358 K, 9058.4 kPa, Liquid",1116.68 ± 1.2 kg/m3
same,mass density,"358 K, 9094.5 kPa, Liquid",1117.44 ± 1.2 kg/m3
same,mass density,"358 K, 9170.1 kPa, Liquid",1118.78 ± 1.2 kg/m3
same,mass density,"358 K, 9207.6 kPa, Liquid",1119.39 ± 1.2 kg/m3
same,mass density,"358 K, 9244 kPa, Liquid",1120.02 ± 1.2 kg/m3
same,mass density,"358 K, 9318.1 kPa, Liquid",1121.42 ± 1.2 kg/m3
same,mass density,"358 K, 9355.8 kPa, Liquid",1122.09 ± 1.2 kg/m3
same,mass density,"358 K, 9393.2 kPa, Liquid",1122.82 ± 1.2 kg/m3
same,mass density,"358 K, 9429.9 kPa, Liquid",1123.38 ± 1.2 kg/m3
same,mass density,"358 K, 9506 kPa, Liquid",1124.84 ± 1.2 kg/m3
same,mass density,"358 K, 9543.2 kPa, Liquid",1125.38 ± 1.2 kg/m3
same,mass density,"358 K, 9579.6 kPa, Liquid",1126.21 ± 1.2 kg/m3
same,mass density,"358 K, 9653.1 kPa, Liquid",1127.35 ± 1.2 kg/m3
same,mass density,"358 K, 9689.3 kPa, Liquid",1128.07 ± 1.2 kg/m3
same,mass density,"358 K, 9728 kPa, Liquid",1128.56 ± 1.2 kg/m3
same,mass density,"358 K, 9764.4 kPa, Liquid",1129.27 ± 1.2 kg/m3
same,mass density,"358 K, 9801.8 kPa, Liquid",1129.98 ± 1.2 kg/m3
same,mass density,"358 K, 9839.1 kPa, Liquid",1130.57 ± 1.2 kg/m3
same,mass density,"358 K, 9875.2 kPa, Liquid",1131.06 ± 1.2 kg/m3
same,mass density,"358 K, 9913 kPa, Liquid",1131.87 ± 1.2 kg/m3
same,mass density,"358 K, 9951.5 kPa, Liquid",1132.43 ± 1.2 kg/m3
same,mass density,"358 K, 9988 kPa, Liquid",1133.16 ± 1.2 kg/m3
same,mass density,"358.16 K, 4.9 kPa, Fluid (supercritical or subcritical phases)",0.14 ± 0.03 kg/m3
same,mass density,"358.16 K, 5.8 kPa, Fluid (supercritical or subcritical phases)",0.15 ± 0.03 kg/m3
same,mass density,"358.16 K, 6.2 kPa, Fluid (supercritical or subcritical phases)",0.17 ± 0.03 kg/m3
